Results published in article PMC6070649, “The solute transport and binding profile of a novel nucleobase cation symporter 2 from the honeybee pathogen Paenibacillus larvae” (FEBS Open Bio, 2018).

B1: PlUacP (P. larvae uric acid permease-like protein) (Paenibacillus larvae subsp. larvae DSM 25430) (protein)
chain: MRKSKVLTLGFQHVLAMYAGAVIVPLIVGSSLKLNAEQLAYLVSIDLLTCGIATLLQVWRNKFFGIGLPVMLGCTFTAVGPMIAIGSEYGMPAIYGSVLASGLFLALFAGFFGKLARFFPPIVTGSVVTIIGITLIPVAVQDMGGGQGSADFGSLSNLALSFGVLLFIILANRFFTGFIRAISILLGLIFGTIAGAFMGKVDIGPLLDASWFHGIHPFYFGFPTFHLPSILTMTLVAIVSVMESTGVFVALGKITEKELTADDLKRGYRSEGLASILGSIMNSFPYTTYSQNVGLIQISKVKSRDVVITAGFILVILGFMPKIAALTLLIPTAVLGGAMIAMFGMVVSSGIKMLGAIDLNNHENLLIIACSVSVGLGVTVAPNLFDHLPDSIKILTSNGIVAGSLTAILMNFLFTVGRKKQDESHASAENVHAA

Key:
[1] = target: T1, PlUacP (P. larvae uric acid permease-like protein) (Paenibacillus larvae, UniProt V9VZQ8); assay: competition with [3H]-adenine uptake in yeast; assay type: cell-based; settings: competitive; 1 μM [2,8-3H]-adenine, 1 mM unlabelled competitor, S. cerevisiae RG191, 5 min
T1 construct: gene pbuX
T1 sequence (V9VZQ8 1-434): B1 chain

[2] = substrate: Nc1ncnc2nc[nH]c12; assay: cells, lysate or membranes; settings: labelled compound [2,8-3H]-adenine 0.1-30 μM, S. cerevisiae RG191, 10 min, 100 mM citrate pH 3.5, 1% glucose, Lineweaver-Burk

Row | Molecule | % adenine uptake at 1 mM competitor [1] | Km [2]
1 | Nc1nc2[nH]cnc2c(=O)[nH]1 [guanine] | guanine, cytosine, hypoxanthine, xanthine, uric acid, and uracil all compete with adenine | 
2 | O=c1[nH]cnc2nc[nH]c12 [hypoxanthine] | guanine, cytosine, hypoxanthine, xanthine, uric acid, and uracil all compete with adenine | 
3 | Nc1cc[nH]c(=O)n1 [cytosine] | guanine, cytosine, hypoxanthine, xanthine, uric acid, and uracil all compete with adenine | 
4 | O=c1[nH]c(=O)c2[nH]cnc2[nH]1 [xanthine] | guanine, cytosine, hypoxanthine, xanthine, uric acid, and uracil all compete with adenine | 
5 | O=c1[nH]c(=O)c2[nH]c(=O)[nH]c2[nH]1 [uric acid] | guanine, cytosine, hypoxanthine, xanthine, uric acid, and uracil all compete with adenine | 
6 | B1 |  | 7.04 ± 0.18 µM
